Measured values published in patent publication US10413581B2, “Combination, composition, and method of administering the combination or composition to animals” (Phibro Animal Health Corporation, priority 2014, dated 2019).

Experiments:
E. maxima [1] = assay: Example 8: lesion score and OPG, E. maxima; type: in vivo, Cobb 500 male chicks; conditions: Composition 250 ppm, Salinomycin 66 ppm, alone or combined
Source text: (§1) On Days 18, 28, and 35, three birds per pen were sacrificed and coccidial lesion scored for degree of E. acervulina, E. maxima and E. tenella infection (Examples 6 and 7). The system of Johnson and Reid (1970) wherein 0 is normal and 1, 2, 3, or 4 indicate increasing severity of infection were used for lesion scoring. In Example 8, three birds per pen were sacrificed on days […] and coccidial lesion scored for degree of E. acervulina, E. maxima and E. tenella infection. The system of Johnson and Reid (1970) wherein 0 is normal and 1, 2, 3, or 4 indicate increasing severity of infection were used for lesion scoring.
(§2) On Days 18 and 28 fresh fecal samples were collected from each pen (Examples 6 and 7). On Days 18 and 28, fresh fecal samples were collected from each pen (Example 8). These representative samples were tested to determine the degree of oocysts shedding/cycling. Oocysts per gram were determined for each sample.
(§3) In this example, the ability of exemplary compositions to improve bird performance under challenge conditions was determined. In some embodiments, an exemplary composition was administered alone and in other embodiments, it was administered in combination with Salinomycin. In some embodiments, the birds were not fed any additives (that is, neither the composition nor Salinomycin) and in other embodiments the birds were solely fed Salinomycin. The birds used in this example were exposed to ionophore tolerant coccidia in the litter of all pens, beginning from day of age. […] The results from this example further illustrate that the disclosed compositions and combinations are effective to better control coccidia that are partially resistant to ionophores.

E. acervulina = assay: Example 5: birds infected with E. acervulina field isolate; performance, lesion score, OPG; type: in vivo
Description: In this particular embodiment, the effects of the composition and Salinomycin, independently, were evaluated. Lower amounts of the composition were tested, including the amount that is typically used by those in the art (i.e., 125 ppm). Salinomycin treatments used 44 ppm or 66 ppm Salinomycin. Non-infected birds that received no medication were used as a control (entry 1 of Table 2, below). Also, some birds were administered 66 ppm of Salinomycin, but where not infected (entry 7 of Table 2, below). The remaining birds were infected with 200,000 oocysts of field isolate of E. acervulina, which is a species of Eimeria that causes coccidiosis in poultry, particularly […] poultry, and subjected to the treatments described below in entries 2-6 of Table 2.

E. tenella [2] = assay: Example 8: lesion score and OPG, E. tenella; type: in vivo, Cobb 500 male chicks; conditions: Composition 250 ppm, Salinomycin 66 ppm, alone or combined
Source text: as §1, §2, §3

E. tenella [3] = assay: Example 5: birds infected with E. tenella field isolate; performance, lesion score, OPG; type: in vivo
Source text: In another test embodiment, the effects of lower amounts of NFP (e.g., 100 ppm, 125 ppm, and 150 ppm) on birds infected with E. tenella, a species of Eimeria that causes hemorrhagic cecal coccidiosis in poultry, particularly young poultry. Infected birds were infected with 100,000 oocysts of field isolate of E. tenella. The infected birds were subjected to the treatments described below in entries 2-6 of Table 4.

coccidia = assay: Example 4: compatibility of the composition with Salinomycin; feed conversion, weight gain, oocysts, coccidial challenge; type: in vivo, broilers; conditions: between days 21 and 28; composition 250 ppm, Salinomycin 66 ppm
Description: In this particular embodiment, the compatibility of the Yucca schidigera and Quillaja saponaria composition with Salinomycin was evaluated. The treatments included embodiments where no feed additive was provided (e.g., none of the composition added), where 250 ppm of the composition was provided, where 66 ppm of Salinomycin was provided, and embodiments where 250 ppm of the composition and 66 ppm of Salinomycin were provided in combination. The anticoccidial effects and immune potentiation of each test embodiment were evaluated and the results are provided graphically in FIGS. 20-26.
A challenge study was also conducted to evaluate the potential for immune potentiation. Similar to the challenge study described in Example 3, 5 birds were removed from each pen after 21 days. These birds were challenged with a three-species coccidial challenge and then placed in batter cages for seven days. On day 28, the birds were killed and lesion scored.

E. maxima [4] = assay: Example 5: birds infected with E. maxima field isolate; performance, lesion score, OPG; type: in vivo
Source text: Similar protocols were used to determine the effects of lower amounts of NFP (e.g., 100 ppm, 125 ppm, and 150 ppm) on birds infected with E. maxima, a common form of Eimeria found in commercial broilers. Infected birds were infected with 37,500 oocysts of field isolate of E. maxima. The infected birds were subjected to the treatments described below in entries 2-6 of Table 3.

[5] = 44 ppm, birds infected with 200,000 oocysts of E. acervulina
[6] = 66 ppm, entry 7 of Table 2 (not infected)
[7] = 44 ppm, birds infected with 100,000 oocysts of E. tenella
[8] = 66 ppm, entry 7 of Table 4 (entries 2-6 infected)
[9] = 44 ppm, birds infected with 37,500 oocysts of E. maxima
[10] = 66 ppm, entry 7 of Table 3 (entries 2-6 infected)

SMILES: CC[C@@H](C(=O)[C@@H](C)[C@@H](O)[C@H](C)[C@@H]1O[C@@H]([C@@H](CC)C(=O)O)CC[C@@H]1C)[C@H]1O[C@]2(C=C[C@@H](O)[C@]3(CC[C@@](C)([C@H]4CC[C@](O)(CC)[C@H](C)O4)O3)O2)[C@H](C)C[C@@H]1C [Salinomycin]
- Lesion Scores E.M. (E. maxima [1]; Day 18): 0.7a
- OPG E.M. (E. maxima [1]; Day 21): 1910bc oocysts per gram
- Lesion Scores E.M. (E. maxima [1]; Day 28): 0.5b
- OPG E.M. (E. maxima [1]; Day 28): 955b oocysts per gram
- Adj. Fd. Conv. (E. acervulina; [5]): 1.946 b
- Avg. Wt. Gain (E. acervulina; [5]): 0.241 ab
- Feed Consum. (E. acervulina; [5]): 2.804 a
- Lesion Score (E. acervulina; [5]): 1.3 c
- OPG (E. acervulina; [5]): 2734 oocysts per gram of fecal material
- Adj. Fd. Conv. (E. acervulina; [6]): 1.948 b
- Avg. Wt. Gain (E. acervulina; [6]): 0.231 b
- Feed Consum. (E. acervulina; [6]): 2.692 ab
- Lesion Score (E. acervulina; [6]): 1.4 c
- OPG (E. acervulina; [6]): 217 oocysts per gram of fecal material
- Lesion Scores E.T. (E. tenella [2]; Day 18): 0.5b
- OPG E.T. (E. tenella [2]; Day 21): 5528a oocysts per gram
- Lesion Scores E.T. (E. tenella [2]; Day 28): 0.1b
- OPG E.T. (E. tenella [2]; Day 28): 3065ab oocysts per gram
- Adj. Fd. Conv. (E. tenella [3]; [7]): 1.929 ab
- Avg. Wt. Gain (E. tenella [3]; [7]): 0.242 ab
- Feed Consum. (E. tenella [3]; [7]): 2.787 a
- Lesion Score (E. tenella [3]; [7]): 0.8 c
- OPG (E. tenella [3]; [7]): 800 oocysts per gram of fecal material
- Adj. Fd. Conv. (E. tenella [3]; [8]): 1.863 bc
- Avg. Wt. Gain (E. tenella [3]; [8]): 0.245 ab
- Feed Consum. (E. tenella [3]; [8]): 2.671 a
- Lesion Score (E. tenella [3]; [8]): 0.6 c
- OPG (E. tenella [3]; [8]): 150 oocysts per gram of fecal material
- susceptibility of broilers to coccidial challenge (coccidia): increased the susceptibility
- Adj. Fd. Conv. (E. maxima [4]; [9]): 2.021 b
- Avg. Wt. Gain (E. maxima [4]; [9]): 0.225 b
- Feed Consum. (E. maxima [4]; [9]): 2.718 ab
- Lesion Score (E. maxima [4]; [9]): 1.3 cd
- OPG (E. maxima [4]; [9]): 4435 oocysts per gram of fecal material
- Adj. Fd. Conv. (E. maxima [4]; [10]): 1.960 b
- Avg. Wt. Gain (E. maxima [4]; [10]): 0.230 b
- Feed Consum. (E. maxima [4]; [10]): 2.647 bc
- Lesion Score (E. maxima [4]; [10]): 1.2 days
- OPG (E. maxima [4]; [10]): 167 oocysts per gram of fecal material
